The subject of this test is L1210 leukemia ip in BDF1 mice, survival T/C. The experiment in a line: NCI In Vivo Anticancer Drug Screen. Data for tumor model L1210 Leukemia (intraperitoneal) in B6D2F1 (BDF1) mice. The note with it: endpoint: mean survival time, higher = longer survival. The gist of the method:
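Ratio derived from survival: compound-dosed mice over vehicle-dosed mice, all bearing a transplantable tumor.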

[1] abbreviates: dose: 100.0 mg/kg/injection, schedule: Q01DX001 (ip), vehicle: saline.
Where [2] appears, read: dose: 100.0 mg/kg/injection, schedule: Q01DX009 (ip), vehicle: saline with Tween-80.
Setting [3] is: dose: 200.0 mg/kg/injection, schedule: Q01DX009 (ip), vehicle: saline with Tween-80.
Where [4] appears, read: dose: 100.0 mg/kg/injection, schedule: Q04DX003 (ip), vehicle: saline.
Where [5] appears, read: dose: 200.0 mg/kg/injection, schedule: Q04DX003 (ip), vehicle: saline.
Setting [6] is: dose: 400.0 mg/kg/injection, schedule: Q04DX003 (ip), vehicle: saline.
Setting [7] is: dose: 100.0 mg/kg/injection, schedule: Q04DX003 (ip), vehicle: saline with Tween-80.
Setting [8] is: dose: 200.0 mg/kg/injection, schedule: Q04DX003 (ip), vehicle: saline with Tween-80.
[9] abbreviates: dose: 100.0 mg/kg/injection, schedule: Q04DX002 (ip), vehicle: Klucel (hydroxypropylcellulose) (HPC).
The mark [10] stands for this setting: dose: 200.0 mg/kg/injection, schedule: Q04DX002 (ip), vehicle: Klucel (hydroxypropylcellulose) (HPC).
Where [11] appears, read: dose: 400.0 mg/kg/injection, schedule: Q04DX002 (ip), vehicle: Klucel (hydroxypropylcellulose) (HPC).
Where [12] appears, read: dose: 400.0 mg/kg/injection, schedule: Q04DX003 (ip), vehicle: saline with Tween-80.

“And” between values parts separate entries of the source, which are not always exact repeats. Equal entries are not always repeated. Inconclusive results and toxic doses are left out.

Consider `O=c1[nH]c(-c2ccc(O)cc2)nc2[nH]ncc12`, for which the T/C is, setting by setting: (dose: 100.0 mg/kg/injection, schedule: Q04DX003 (ip), vehicle: Klucel (hydroxypropylcellulose) (HPC)) 88 % of control; (dose: 200.0 mg/kg/injection, schedule: Q04DX003 (ip), vehicle: Klucel (hydroxypropylcellulose) (HPC)) 86 % of control.

On to `COc1cc(N(CCCl)CCCl)c(OC)cc1/C=N\NC(=O)CN(C)C`, for which the T/C was 105 % of control (dose: 2.25 mg/kg/injection, schedule: Q01DX015 (ip), vehicle: saline); 108 % of control (dose: 4.5 mg/kg/injection, schedule: Q01DX015 (ip), vehicle: saline); 119 % of control (dose: 6.25 mg/kg/injection, schedule: Q01DX015 (ip), vehicle: saline); 116 % of control (dose: 9.0 mg/kg/injection, schedule: Q01DX015 (ip), vehicle: saline); 114 % of control (dose: 10.5 mg/kg/injection, schedule: Q01DX015 (ip), vehicle: saline); 115 % of control (dose: 12.5 mg/kg/injection, schedule: Q01DX015 (ip), vehicle: saline). Besides, the T/C by setting is: (dose: 18.0 mg/kg/injection, schedule: Q01DX015 (ip), vehicle: saline) 111 % of control and 116 % of control; (dose: 25.0 mg/kg/injection, schedule: Q01DX015 (ip), vehicle: saline) 96 % of control; (dose: 30.0 mg/kg/injection, schedule: Q01DX015 (ip), vehicle: saline) 88 % of control; (dose: 36.0 mg/kg/injection, schedule: Q01DX015 (ip), vehicle: saline) 94 % of control; (dose: 44.7 mg/kg/injection, schedule: Q01DX001 (ip), vehicle: saline) 120 % of control; (dose: 50.0 mg/kg/injection, schedule: Q01DX015 (ip), vehicle: saline) 90 % of control. Further, the T/C reads like this: under setting [1], 162 % of control; (dose: 150.0 mg/kg/injection, schedule: Q01DX001 (ip), vehicle: saline) 124 % of control.

With `CCCCCCCCC(C)NCCOC(=O)c1ccc([N+](=O)[O-])cc1` (centres undefined), the T/C is 89 % of control (dose: 75.0 mg/kg/injection, schedule: Q01DX001 (ip), vehicle: other) and 89 % of control (dose: 150.0 mg/kg/injection, schedule: Q01DX001 (ip), vehicle: other).

In the case of `Nc1ncnc2c1ccn2Cc1ccccc1`, the T/C (dose: 50.0 mg/kg/injection, schedule: Q01DX001 (ip), vehicle: other) was 111 % of control; the T/C (dose: 100.0 mg/kg/injection, schedule: Q01DX001 (ip), vehicle: other) was 97 % of control; the T/C (dose: 200.0 mg/kg/injection, schedule: Q01DX001 (ip), vehicle: other) is 97 % of control; the T/C (dose: 400.0 mg/kg/injection, schedule: Q01DX001 (ip), vehicle: other) was 103 % of control.

Turning to `COc1cc2c(cc1OC)C(Cc1ccc(N)cc1)N(C)CC2` (centres undefined), the T/C (dose: 10.0 mg/kg/injection, schedule: Q01DX001 (ip), vehicle: saline) is 87 % of control; the T/C (dose: 20.0 mg/kg/injection, schedule: Q01DX001 (ip), vehicle: saline) was 91 % of control; the T/C (dose: 40.0 mg/kg/injection, schedule: Q01DX001 (ip), vehicle: saline) is 94 % of control; the T/C (dose: 80.0 mg/kg/injection, schedule: Q01DX001 (ip), vehicle: saline) is 98 % of control.

Take `CCOC(=O)c1cnn(C(N)=O)c1N`: the T/C under setting [2] is 108 % of control and the T/C under setting [3] is 96 % of control.

On to `NC(CSCc1cc(=O)[nH]c(=O)[nH]1)C(=O)O` (centres undefined), for which the T/C is 97 % of control under setting [4], 97 % of control under setting [5] and 95 % of control under setting [6].

In the case of `CC1(C)OC(=O)C(=Cc2cccc3ccc4ccccc4c23)C(=O)O1`, the T/C (dose: 100.0 mg/kg/injection, schedule: Q01DX001 (ip), vehicle: gum acacia) is 100 % of control; the T/C (dose: 200.0 mg/kg/injection, schedule: Q01DX001 (ip), vehicle: gum acacia) was 97 % of control; the T/C (dose: 400.0 mg/kg/injection, schedule: Q01DX001 (ip), vehicle: gum acacia) was 101 % of control.

On to `COc1ccc(NC(=O)NNC(=O)CCCC(=O)NNC(=O)Nc2ccc(OC)cc2)cc1`, for which the T/C (dose: 50.0 mg/kg/injection, schedule: Q01DX001 (ip), vehicle: saline) is 112 % of control; the T/C under setting [1] is 102 % of control; the T/C (dose: 200.0 mg/kg/injection, schedule: Q01DX001 (ip), vehicle: saline) was 93 % of control; the T/C (dose: 400.0 mg/kg/injection, schedule: Q01DX001 (ip), vehicle: saline) is 93 % of control.

With `[CH3][Sb]1([Cl])[CH2]CC[CH2]1`, the T/C is 103 % of control under setting [7], 101 % of control under setting [4], 107 % of control under setting [8] and 108 % of control under setting [5].

Regarding `Cc1ccc(NN=Nc2ccccc2C#N)cc1`, the T/C was 92 % of control (dose: 50.0 mg/kg/injection, schedule: Q01DX009 (ip), vehicle: saline); 92 % of control (dose: 100.0 mg/kg/injection, schedule: Q01DX009 (ip), vehicle: saline); 110 % of control (dose: 100.0 mg/kg/injection, schedule: Q04DX003 (ip), vehicle: acetone); 88 % of control (dose: 200.0 mg/kg/injection, schedule: Q01DX009 (ip), vehicle: saline); 100 % of control (dose: 200.0 mg/kg/injection, schedule: Q04DX003 (ip), vehicle: acetone); 103 % of control (dose: 400.0 mg/kg/injection, schedule: Q04DX003 (ip), vehicle: acetone).

In the case of `CC(C)Cc1ccc(OC(=O)Nc2ccc(Cl)cc2)cc1`, the T/C by setting is: (dose: 25.0 mg/kg/injection, schedule: Q04DX003 (ip), vehicle: saline with Tween-80) 95 % of control; (dose: 50.0 mg/kg/injection, schedule: Q04DX003 (ip), vehicle: saline with Tween-80) 95 % of control; under setting [7], 95 % of control.

Take `C=CCCCCCCCCC(=O)Nc1ccc(Cl)cc1C(=O)c1ccccc1`: the T/C was 95 % of control under setting [9], 92 % of control under setting [10] and 89 % of control under setting [11].

As for `C[Si](C)(C)Oc1c(Cl)cc(Cl)cc1Cl`, the T/C is 102 % of control under setting [7], 98 % of control under setting [8] and 91 % of control under setting [12].

As to `COc1cc(N)ccc1/C=C/C(=O)O`, the T/C runs as follows: under setting [4], 97 % of control; under setting [5], 98 % of control; under setting [6], 92 % of control.

For the molecule `CC1(C)C2CCC1(C)C(OCCC#N)C2` (centres undefined), the T/C runs as follows: (dose: 100.0 mg/kg/injection, schedule: Q04DX002 (ip), vehicle: saline) 93 % of control; (dose: 200.0 mg/kg/injection, schedule: Q04DX002 (ip), vehicle: saline) 107 % of control; (dose: 400.0 mg/kg/injection, schedule: Q04DX002 (ip), vehicle: saline) 104 % of control.

For `CNCCN(C)CCN(C)Cc1ccc(OC)cc1`, the T/C reads like this: (dose: 25.0 mg/kg/injection, schedule: Q01DX009 (ip), vehicle: water) 105 % of control; (dose: 50.0 mg/kg/injection, schedule: Q01DX009 (ip), vehicle: water) 102 % of control; (dose: 100.0 mg/kg/injection, schedule: Q01DX009 (ip), vehicle: water) 100 % of control; (dose: 200.0 mg/kg/injection, schedule: Q01DX009 (ip), vehicle: water) 107 % of control.

Regarding `Cc1cc(=O)[nH]c(Nc2ccccc2)n1`, the T/C was 90 % of control under setting [2]; 93 % of control under setting [3]; 90 % of control (dose: 400.0 mg/kg/injection, schedule: Q01DX009 (ip), vehicle: saline with Tween-80).

With `c1ccc(-c2c3ccccc3c(-c3ccccc3)c3c(-c4ccccc4)c4ccccc4c(-c4ccccc4)c23)cc1`, the T/C was 95 % of control under setting [9], 98 % of control under setting [10] and 109 % of control under setting [11].

Regarding `C/C(=N/NC(N)=S)c1c(C)[nH]c2ccccc12`, the T/C runs as follows: (dose: 10.0 mg/kg/injection, schedule: Q01DX001 (ip), vehicle: acetone) 96 % of control; (dose: 20.0 mg/kg/injection, schedule: Q01DX001 (ip), vehicle: acetone) 96 % of control; (dose: 40.0 mg/kg/injection, schedule: Q01DX001 (ip), vehicle: acetone) 95 % of control.

With `CC(=O)C(C)=O`, the T/C by setting is: under setting [7], 95 % of control; under setting [8], 101 % of control; under setting [12], 106 % of control.

The record behind these values is PubChem BioAssay AID248 (DTP/NCI, 2004).
